Source: ChEMBL document CHEMBL1201862, “PubChem BioAssay data set” (2004)
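Growth conditions: 96-well plates. Treatment: test compound, 48 hours, 5 concentrations. Analysis: linear interpolation between bracketing concentrations; unreached endpoints set to highest concentration. GI50 is the concentration that inhibits growth by half.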 Activity calls are given as the source filed them. Rule as the data show it: active = GI50 up to about 1.1 µM and inactive = higher.

Legend:
Assay in all cases: DTP human tumour cell line panel, 48 h
SNB-75 = system: SNB-75
SK-MEL-28 = system: SK-MEL-28
HCT-15 = system: HCT-15
HOP-92 = system: HOP-92
MDA-MB-435 = system: MDA-MB-435
M14 = system: M14
KM12 = system: KM12
NCI-H460 = system: NCI-H460
NCI-H226 = system: NCI-H226
SK-MEL-2 = system: SK-MEL-2
IGROV-1 = system: IGROV-1
CAKI-1 = system: CAKI-1
TK-10 = system: TK-10
COLO 205 = system: COLO 205
SK-OV-3 = system: SK-OV-3
OVCAR-8 = system: OVCAR-8
OVCAR-5 = system: OVCAR-5
HL-60 = system: HL-60
U-251 = system: U-251
Malme-3M = system: Malme-3M

Measured: GI50

CCCC1C2=C(C(=O)OC2=O)C2C(CC)CC3=C(C(=O)OC3=O)C12 (stereo not drawn)
> 100 µM: HCT-15
inactive: SNB-75 > 100 µM | SK-MEL-28 > 100 µM | HOP-92 > 100 µM | MDA-MB-435 > 100 µM | M14 > 100 µM | KM12 > 100 µM | NCI-H460 > 100 µM | NCI-H226 > 100 µM | SK-MEL-2 > 100 µM | IGROV-1 > 100 µM | CAKI-1 > 100 µM | TK-10 > 100 µM | COLO 205 > 100 µM | SK-OV-3 > 100 µM | OVCAR-8 > 100 µM | OVCAR-5 > 100 µM | HL-60 > 100 µM | U-251 > 100 µM

O=C1c2ccccc2C(=O)c2sc(Nc3ccccc3C(F)(F)F)nc21
inactive: Malme-3M 12.4 µM | SNB-75 15.1 µM | SK-MEL-28 16.2 µM | HOP-92 10.6 µM | MDA-MB-435 4.82 µM | M14 21.7 µM | KM12 10.2 µM | NCI-H460 21.8 µM | SK-MEL-2 11.6 µM | IGROV-1 12.5 µM | CAKI-1 8.77 µM | TK-10 19.7 µM | COLO 205 8.89 µM | SK-OV-3 16.7 µM | OVCAR-5 22.4 µM | HL-60 3.74 µM | U-251 10.6 µM
7.29 µM: HCT-15

COC(=O)C1=C(O)CCCC(C2CCCCC(=O)C2C(=O)OC)=C1 (stereo not drawn)
inactive: SNB-75 28.7 µM | SK-MEL-28 > 100 µM | HOP-92 28.5 µM | MDA-MB-435 > 100 µM | M14 > 100 µM | KM12 94.6 µM | NCI-H460 13.9 µM | NCI-H226 27.9 µM | SK-MEL-2 > 100 µM | IGROV-1 36.8 µM | CAKI-1 31.1 µM | TK-10 > 100 µM | COLO 205 83.4 µM | SK-OV-3 76.7 µM | OVCAR-8 45.5 µM | OVCAR-5 > 100 µM | U-251 29 µM
87.5 µM: HCT-15

CCCCCC(C(O)C#N)C(O)(C(F)(F)F)C(F)(F)F (stereo not drawn)
> 10 µM: HCT-15
inactive: Malme-3M > 10 µM | SNB-75 > 10 µM | SK-MEL-28 > 10 µM | HOP-92 > 10 µM | MDA-MB-435 > 10 µM | M14 > 10 µM | KM12 > 10 µM | IGROV-1 > 10 µM | CAKI-1 > 10 µM | TK-10 > 10 µM | COLO 205 > 10 µM | SK-OV-3 > 10 µM | OVCAR-8 > 10 µM | OVCAR-5 > 10 µM | HL-60 > 10 µM | U-251 > 10 µM

C#CC1(O)CCCCCCCCC2(CCCCCCCC1)OCCO2
inactive: Malme-3M 19.5 µM | SK-MEL-28 19.5 µM | HOP-92 17.4 µM | MDA-MB-435 19.4 µM | M14 19.6 µM | KM12 18.6 µM | NCI-H460 21.3 µM | NCI-H226 17 µM | SK-MEL-2 13.7 µM | IGROV-1 16.7 µM | CAKI-1 12 µM | TK-10 20.7 µM | COLO 205 17.4 µM | SK-OV-3 18.7 µM | OVCAR-8 19.4 µM | OVCAR-5 22 µM | HL-60 13.5 µM | U-251 17.1 µM
18 µM: HCT-15

CC[C@H](C)[C@H]1NC(=O)[C@@H](NC(=O)[C@@H](CC(C)C)N(C)C(=O)C2CCCN2C(=O)[C@H](C)O)[C@@H](C)OC(=O)[C@@H]2Cc3ccccc3CN2C(=O)[C@@H]2CCCN2C(=O)[C@H](CC(C)C)NC(=O)[C@@H](C)C(=O)[C@H](C(C)C)OC(=O)C[C@@H]1O (stereo partly drawn)
active: Malme-3M 0.34 µM | SNB-75 0.121 µM | SK-MEL-28 0.231 µM | MDA-MB-435 0.374 µM | KM12 0.104 µM | NCI-H460 0.171 µM | SK-MEL-2 0.205 µM | IGROV-1 0.476 µM | COLO 205 0.269 µM | SK-OV-3 0.547 µM | OVCAR-8 1.1 µM | OVCAR-5 0.822 µM | U-251 0.0586 µM
inactive: HOP-92 1.58 µM | M14 1.17 µM | NCI-H226 1.6 µM | CAKI-1 4.92 µM | TK-10 2.62 µM
> 47.2 µM: HCT-15

CC1=NN(C(=O)CSc2nc3ccc(I)cc3c(=O)n2Cc2ccccc2)C(=O)C1
21.5 µM: HCT-15
inactive: SNB-75 35.3 µM | SK-MEL-28 57.3 µM | HOP-92 36.1 µM | MDA-MB-435 26.4 µM | M14 31.7 µM | KM12 28.3 µM | NCI-H460 31.8 µM | NCI-H226 43.9 µM | SK-MEL-2 17.2 µM | IGROV-1 28.8 µM | CAKI-1 31.8 µM | TK-10 47.6 µM | COLO 205 33.5 µM | SK-OV-3 29.1 µM | OVCAR-8 48.8 µM | OVCAR-5 65.2 µM | HL-60 33.3 µM | U-251 25.4 µM

O=C(NC(=S)Nc1ccc(Br)cc1)c1ccc2c(c1)Sc1ccccc1O2
inactive: Malme-3M > 100 µM | SNB-75 3.04 µM | SK-MEL-28 > 100 µM | HOP-92 22.5 µM | MDA-MB-435 > 100 µM | M14 > 100 µM | KM12 > 100 µM | NCI-H460 > 100 µM | NCI-H226 > 100 µM | SK-MEL-2 > 100 µM | IGROV-1 49.3 µM | TK-10 29.4 µM | COLO 205 > 100 µM | SK-OV-3 40.2 µM | OVCAR-8 50.1 µM | OVCAR-5 > 100 µM | HL-60 > 100 µM | U-251 37 µM
> 100 µM: HCT-15

N#Cc1c(NCCc2ccc(F)cc2)c2ccccc2n2c1nc1ccccc12
28.4 µM: HCT-15
inactive: SNB-75 6.32 µM | SK-MEL-28 40.6 µM | HOP-92 3.55 µM | MDA-MB-435 73.5 µM | M14 42 µM | KM12 23.2 µM | NCI-H460 16.5 µM | NCI-H226 16.7 µM | SK-MEL-2 36.9 µM | IGROV-1 13.4 µM | CAKI-1 9.84 µM | TK-10 12.5 µM | COLO 205 71.6 µM | SK-OV-3 20.1 µM | OVCAR-8 5.68 µM | OVCAR-5 41.6 µM | HL-60 > 100 µM | U-251 11.3 µM

Cc1n[nH]c(=O)n1/N=C/c1cccnc1
> 100 µM: HCT-15
inactive: Malme-3M > 100 µM | SK-MEL-28 > 100 µM | HOP-92 33.4 µM | MDA-MB-435 > 100 µM | M14 > 100 µM | KM12 > 100 µM | NCI-H460 > 100 µM | NCI-H226 > 100 µM | SK-MEL-2 > 100 µM | IGROV-1 > 100 µM | CAKI-1 > 100 µM | TK-10 > 100 µM | COLO 205 > 100 µM | SK-OV-3 > 100 µM | OVCAR-8 > 100 µM | OVCAR-5 > 100 µM | HL-60 > 100 µM | U-251 > 100 µM

CCCCC(=O)Oc1ccc2c(C)cc(=O)oc2c1
inactive: Malme-3M > 100 µM | SNB-75 > 100 µM | SK-MEL-28 > 100 µM | HOP-92 26.2 µM | MDA-MB-435 > 100 µM | M14 > 100 µM | KM12 > 100 µM | NCI-H460 > 100 µM | NCI-H226 > 100 µM | SK-MEL-2 > 100 µM | IGROV-1 > 100 µM | CAKI-1 > 100 µM | TK-10 > 100 µM | COLO 205 > 100 µM | OVCAR-8 > 100 µM | OVCAR-5 > 100 µM | HL-60 > 100 µM | U-251 > 100 µM

COC(=O)CC1(O)C(C=C(C)C)C(C(=O)OC)C(=O)C(C(=O)OC)C1C(=O)OC (stereo not drawn)
inactive: Malme-3M > 100 µM | SK-MEL-28 > 100 µM | HOP-92 > 100 µM | MDA-MB-435 > 100 µM | M14 > 100 µM | KM12 > 100 µM | NCI-H460 > 100 µM | NCI-H226 > 100 µM | SK-MEL-2 > 100 µM | IGROV-1 > 100 µM | CAKI-1 > 100 µM | TK-10 > 100 µM | COLO 205 > 100 µM | SK-OV-3 > 100 µM | OVCAR-8 > 100 µM | OVCAR-5 > 100 µM | HL-60 > 100 µM | U-251 > 100 µM
> 100 µM: HCT-15

Cc1ccc(C(C2C(=O)N(C)C(=O)N(C)C2=O)C(F)(F)C(=O)N(C)C)cc1 (stereo not drawn)
inactive: Malme-3M > 100 µM | SNB-75 > 100 µM | SK-MEL-28 > 100 µM | HOP-92 > 100 µM | MDA-MB-435 > 100 µM | M14 > 100 µM | KM12 > 100 µM | NCI-H460 > 100 µM | NCI-H226 > 100 µM | SK-MEL-2 > 100 µM | CAKI-1 > 100 µM | TK-10 > 100 µM | COLO 205 > 100 µM | SK-OV-3 > 100 µM | OVCAR-8 > 100 µM | OVCAR-5 > 100 µM | U-251 > 100 µM
> 100 µM: HCT-15

CC(C)(CN1CCCCC1)C(=O)CC(SCCS(=O)(=O)O)c1ccc(Cl)c(Cl)c1 (stereo not drawn)
2.07 µM: HCT-15
inactive: Malme-3M 4.1 µM | HOP-92 1.76 µM | MDA-MB-435 2.21 µM | M14 1.92 µM | KM12 5.71 µM | NCI-H460 2.22 µM | NCI-H226 20 µM | SK-MEL-2 24 µM | IGROV-1 4.4 µM | CAKI-1 2.97 µM | TK-10 5.46 µM | COLO 205 2.58 µM | SK-OV-3 29.7 µM | OVCAR-8 2.75 µM | OVCAR-5 3.78 µM | HL-60 3.46 µM | U-251 7.13 µM

c1cc2cc3c4c5c(cc6ccc7cc8cc9c%10c8c8c7c6c5c8c5c%10c(c1C9N1CCOCCOCCOCCOCCOCC1)c2c45)C3 (stereo not drawn)
> 100 µM: HCT-15
inactive: Malme-3M > 100 µM | SNB-75 > 100 µM | SK-MEL-28 > 100 µM | HOP-92 > 100 µM | MDA-MB-435 > 100 µM | M14 > 100 µM | KM12 > 100 µM | NCI-H460 > 100 µM | NCI-H226 > 100 µM | SK-MEL-2 > 100 µM | IGROV-1 > 100 µM | TK-10 > 100 µM | COLO 205 > 100 µM | SK-OV-3 > 100 µM | OVCAR-8 > 100 µM | OVCAR-5 > 100 µM | HL-60 > 100 µM | U-251 > 100 µM
